Assay results taken from patent US10568822B2, “Melanogenesis inhibitor comprising d-pantothenyl alcohol, and skin-whitening cosmetic containing same melanogenesis inhibitor” (POLA CHEMICAL INDUSTRIES, INC., priority 2014, dated 2020).

Experiments:
[1] = test system: human normal keratinocytes; experiment: Keratinocyte cell proliferation experiment (WST-8); assay type: cell-based; settings: for Cell Proliferation Rate (%) Sample (2): 1% plant extract or 0.1 μg/mL existing skin-whitening compound alone, ratio to control; for synergistic effect of a keratinocyte cell proliferation action: in combination with D-pantothenyl alcohol, conclusion from Table 2
Protocol: According to the method described below, the cell proliferation promoting action was evaluated. With a complete medium for keratinocyte culture (Kurabo Industries, Ltd.) used in a 24-well plate, human normal keratinocytes (Kurabo Industries, Ltd.) were seeded in each well at a concentration of 1.0×10^4 cells/well/1 mL. Under a 5% carbon dioxide atmosphere, the culture was conducted at 37° C. for 24 hours. Then, replacement was made such that a 1 mL medium containing D-pantothenyl alcohol at 0 μM, 15 μM, or 150 μM was in each of three wells for each concentration. And it was further cultured for 2 days under the same conditions as the aforementioned culture conditions. After completion of the culture, 20 μL of the WST-8 reagent (Dojindo Laboratories) was added to each well, and color reaction was allowed at 37° C. for 3 hours. After the reaction, absorbances at 450 nm and 650 nm were measured using a microplate reader, Benchmark Plus (Bio-Rad Laboratories), and the 450 nm absorbance measurement minus the 650 nm absorbance measurement was calculated to give a cell proliferation measurement.
Relative to the cell proliferation measurements for the wells cultured in the media containing 0 μM D-pantothenyl alcohol (control), the cell proliferation measurements for the wells cultured in the media containing D-pantothenyl alcohol were each obtained in percentage as a cell proliferation rate (%). In other words, it is possible to determine that the larger the absorbance value is, the higher the cell proliferation rate is, and accordingly, it is possible to determine that the cell proliferation promotion titer of the added ingredients is larger.
(§1) While 0 mM or 0 μM D-pantothenyl alcohol was used as a control similarly, the 1 mM D-pantothenyl alcohol in <Experiment 1> was replaced with each of the following samples (1) to (3) for experimenting.
In addition, the 15 μM and the 150 μM D-pantothenyl alcohol in <Experiment 2> were replaced with the aforementioned samples (1) to (3) respectively for experimenting. Note that the amount of melanin (%) and the cell proliferation rate (%) in Table 2 are both a ratio to the control, as described in Experiment 1 and Experiment 2.

human normal melanocytes = experiment: Melanogenesis inhibition experiment (14C-2-thiouracil incorporation); assay type: cell-based; settings: for Melanin Amount (%) Sample (2): 1% plant extract or 0.1 μg/mL existing skin-whitening compound alone, ratio to control; for synergistic effect of a melanogenesis inhibitory action: in combination with D-pantothenyl alcohol, conclusion from Table 2
Protocol: According to the method described below, 2-thiouracil (^14C-labeled 2-thiouracil in the present test) which is specifically incorporated into melanin in the melanin synthesis process within cells was used to evaluate the melanogenesis inhibitory action. With a complete medium for melanocyte culture (Invitrogen Corporation) used in a 24-well plate, human normal melanocytes (Kurabo Industries, Ltd.) were seeded in each well at a concentration of 6.0×10^4 cells/well/0.5 mL. Under a 5% carbon dioxide atmosphere, the culture was conducted at 37° C. for 24 hours. Then, replacement was made such that a 0.5 mL medium containing D-pantothenyl alcohol at 0 mM or 1 mM was in each of three wells for each concentration and, to these […] wells, 0.5 μCi/well of 2-[2-^14C] thiouracil (Daiichi Clarity Co., Ltd.) was further added. And it was further cultured for 3 days under the same conditions as the aforementioned culture conditions. After completion of the culture, the culture medium was removed from each well, which was washed with PBS (phosphate-buffered saline), and the number of cells was measured using the WST-8 reagent (Dojindo Laboratories). The WST-8 reagent was removed from each well, which was washed with PBS, and using 100 (w/v) % trichloroacetic acid (Wako Pure Chemical Industries, Ltd.), the cells were separated from the bottom of the wells, to which water was then added for dilution so that the concentration of the trichloroacetic acid could be 10 (w/v) %, and which were allowed to stand in a refrigerator for 30 minutes. After the cells were recovered by centrifugation, the amount of ^14C-thiouracil in the cells recovered from each well was measured with a liquid scintillation counter (Aloka Co., Ltd.).
Relative to the radiation doses of the cells cultured in the media containing 0 mM D-pantothenyl alcohol (control), the radiation doses of the cells cultured in the media containing 1 mM D-pantothenyl alcohol were each obtained in percentage as the amount of melanin (%). In other words, it is possible to determine that the smaller the radiation dose incorporated into each cell is, the smaller the amount of melanin is, and accordingly, it is possible to determine that the melanin inhibition titer of the added ingredient is larger.
as §1

| SMILES | Cell Proliferation Rate (%) Sample (2) [1] | synergistic effect of a keratinocyte cell proliferation action [1] | Melanin Amount (%) Sample (2) (human normal melanocytes) | synergistic effect of a melanogenesis inhibitory action (human normal melanocytes) | Cell Proliferation Rate (%) Sample (1) ([1]; 1 mM D-pantothenyl alcohol alone, ratio to 0 μM control) | keratinocyte cell proliferation action ([1]; Experiment 2, 15 μM or 150 μM vs 0 μM, FIG. 2, result in words) | Melanin Amount (%) Sample (1) (human normal melanocytes; 1 mM D-pantothenyl alcohol alone, ratio to 0 mM control) | melanogenesis inhibitory action (human normal melanocytes; Experiment 1, 1 mM vs 0 mM, FIG. 1, result in words) |
| --- | --- | --- | --- | --- | --- | --- | --- | --- |
| CCCCc1ccc(O)cc1O [4-n-butyl resorcinol] | 120.3% | synergistic effect | 93.2% | synergistic effect |  |  |  |  |
| c1ccc(C(c2ccccc2)(c2ccccc2)n2ccnc2)cc1 [Compound 1, 1-(triphenylmethyl) imidazole] | 112.1% | synergistic effect | 93.1% | synergistic effect |  |  |  |  |
| O=C(N[C@@H](CO)C(=O)O)c1ccccc1 [Compound 31, N-benzoyl-L-serine] | 118.7% | synergistic effect | 94.6% | synergistic effect |  |  |  |  |
| CSCCC(NC(=O)c1ccc(C)cc1)C(=O)O (stereo not shown) [Compound 45, N-(toluyl) methionine] | 113.2% |  | 93.4% |  |  |  |  |  |
| CC(C)(CO)[C@@H](O)C(=O)NCCCO [D-pantothenyl alcohol] |  |  |  |  | 123.3% | has a keratinocyte cell proliferation action | 69.8% | has a melanogenesis inhibitory action |
| C[C@H]1[C@H](C)CC[C@]2(C(=O)O)CC[C@]3(C)C(=CC[C@@H]4[C@@]5(C)CCC(OP(=O)(O)O)C(C)(C)[C@@H]5CC[C@]43C)[C@H]12 (stereo partly shown) [Ursolic acid phosphate ester, ursolic acid phosphate ester] | 118.6% | synergistic effect | 98.4% | synergistic effect |  |  |  |  |
